Data taken from article PMC3248459, “A Photocytes-Associated Fatty Acid-Binding Protein from the Light Organ of Adult Taiwanese Firefly, Luciola cerata” (PLoS ONE, 2011).
Like-named read-outs stand apart in the source and are kept apart here.

How the values were obtained:
Type in all cases: binding
recombinant lcFABP [1] = biological target: T1, recombinant lcFABP (Luciola cerata, UniProt G1FKW0); test: fluorescence (ANS) displacement assay with fatty acids; settings: for binding strength of lcFABP to ligand (in words): ANS displacement assay, recombinant lcFABP
T1 sequence (G1FKW0 entry or part of it): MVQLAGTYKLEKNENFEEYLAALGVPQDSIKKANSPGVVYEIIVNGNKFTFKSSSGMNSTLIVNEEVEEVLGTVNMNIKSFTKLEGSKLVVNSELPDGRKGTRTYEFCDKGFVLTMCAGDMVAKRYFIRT
Method: (§1) The binding property of lcFABP to fatty acids was analyzed by a fluorescence displacement assay using 1-anilinonaphthalene-8-sulfonic acid (ANS) as fluorescent probe. This assay utilizes ANS's property of emitting intense fluorescence when bind to the hydrophobic region of protein non-covalently. The displacement of ANS from ligand binding site of FABPs by fatty acid or other hydrophobic ligand will result in the reduction of fluorescence. In this way, the apparent inhibition constants (Ki) of fatty acid or hydrophobic ligand to FABPs can be measured, [25]-[27].
Recombinant lcFABP was overexpressed in E. coli cells, and purified by a two-step chromatography for ligand binding assay. […] After that, the binding of fatty acid to lcFABP was examined by a competitive displacement titration. […] Conversely, the lcFABP binds moderately to saturated dodecanoic acid (C12:0), monounsaturated oleic acid (C18:1) and polyunsaturated arachidonic acid (C20:4), and poorly to the saturated capric acid (C10:0). These binding studies confirmed that the recombinant lcFABP is a functional protein for fatty acids binding as other reported FABPs, [16].
Fatty acid binding of recombinant lcFABP was assessed by a competitive displacement assay using fluorescence probe ANS as described previously, [27]. F7000 fluorescence spectrophotometer (Hitachi, Tokyo, Japan) was used for measuring the ANS fluorescence signal at the emission 470 nm following excitation at 375 nm. All measurements were carried out in an assay buffer contained 50 mM sodium phosphate, pH 7.5, 140 mM KCl, 5 mM β-ME at 25°C under a dim light. ANS and various fatty acids were prepared freshly in absolute ethanol before used. To evaluate ANS-lcFABP interaction, 2 µM lcFABP in a final volume of 2 ml assay buffer was titrated with 1∼2 ul of ANS from a initial concentration of 0 µM to 80 µM. The apparent dissociation constant (Kd) of ANS-lcFABP complex was measured by nonlinear regression analysis of the binding data as described previously. To evaluated the binding of fatty acids to lcFABP, 2 µM lcFABP was pre-equilibrated with 40 µM ANS for 2 min in assay buffer, and then titrated with increasing concentrations of fatty acids until the reduction of fluorescence became saturate. The apparent inhibition constant (Ki) of each fatty acid to ANS-lcFABP complex was calculated from the displacement data as described previously. All binding experiments were repeated at least three times.

recombinant lcFABP [2] = biological target: T1, recombinant lcFABP; test: time-dependent ANS displacement assay with D-luciferin and palmitic acid (Fig. S2)
Method: In this study, we also investigated whether lcFABP could bind firefly luciferin using ANS displacement assay (Fig. S2).
Fluorescence change was recorded after successively adding lcFABP (until final concentration become 2 µM at 100 s), D-luciferin (Luc; 1 µM at 200 s and 2 µM at 300 s) or palmitic acid (PA; 1 µM at 200 s and 2 µM at 300 s), and the competitive palmitic acid (2 µM at 400 s) or D-luciferin (2 µM at 400 s) to into the ANS (40 µM) containing buffer using time-dependent model. The results have been subtracted of D-luciferin's intrinsic-fluorescence. All experiments are monitored under a detected wavelength of Ex: 370 nm and Em: 450 nm to reduce the interference of D-luciferin intrinsic-fluorescence to the assay. (TIF) Click here for additional data file.

recombinant lcFABP [3] = biological target: T1, recombinant lcFABP; test: ANS fluorescence titration of recombinant lcFABP
Method: as §1
Recombinant lcFABP was overexpressed in E. coli cells, and purified by a two-step chromatography for ligand binding assay. […]
Fatty acid binding of recombinant lcFABP was assessed by a competitive displacement assay using fluorescence probe ANS as described previously, [27]. F7000 fluorescence spectrophotometer (Hitachi, Tokyo, Japan) was used for measuring the ANS fluorescence signal at the emission 470 nm following excitation at 375 nm. […] The apparent dissociation constant (Kd) of ANS-lcFABP complex was measured by nonlinear regression analysis of the binding data as described previously. To evaluated the binding of fatty acids to lcFABP, 2 µM lcFABP was pre-equilibrated with 40 µM ANS for 2 min in assay buffer, and then titrated with increasing concentrations of fatty acids until the reduction of fluorescence became saturate. […]

[4] = apparent inhibition constant, 2 µM lcFABP pre-equilibrated with 40 µM ANS, pH 7.5, 25°C, at least three repeats, read-out: Ki

SMILES | Ki (recombinant lcFABP [1]) [nM] | binding strength of lcFABP to ligand (in words) (recombinant lcFABP [1]) | also measured
CCCCCCCCCCCC(=O)O [Dodecanoic acid] | 1670 ± 150 | moderately | 
CCCCC/C=C\C/C=C\C/C=C\C/C=C\CCCC(=O)O [Arachidonic acid] | 1590 ± 160 | moderately | 
CCCCCCCCCC(=O)O [Capric acid] |  | poorly | Ki (recombinant lcFABP [1]; [4]): 118000 ± 6240 nM
CCCCCCCCCCCCCC(=O)O [Myristic acid] | 640 ± 140 | strongly | 
CCCCCCCCCCCCCCCCCC(=O)O [Steric acid] |  | strongly | Ki (recombinant lcFABP [1]; [4]): 250 ± 10 nM
CCCCCCCCCCCCCCCC(=O)O [Palmitic acid] | 550 ± 120 | strongly | reduction of fluorescence (recombinant lcFABP [2]; 2 µM lcFABP, 40 µM ANS, ligand added at 1-2 µM, luciferin intrinsic fluorescence subtracted, Ex 370 nm, Em 450 nm): ≤ 40%
O=S(=O)(O)c1cccc2cccc(Nc3ccccc3)c12 [ANS, 1-anilinonaphthalene-8-sulfonic acid] |  |  | Kd (recombinant lcFABP [3]): 11.2 ± 1.5 µM
O=C(O)[C@H]1CSC(c2nc3ccc(O)cc3s2)=N1 [luciferin, D-luciferin] |  |  | interaction of lcFABP with ligand (in words) (recombinant lcFABP [2]): weakly; reduction of fluorescence (recombinant lcFABP [2]): about 12%
CCCCCCCC/C=C\CCCCCCCC(=O)O [Oleic acid] | 1000 ± 170 | moderately | 
